Test results from US10272056B2, “Treatment for mitochondrial diseases” (The George Washington University a Congressionally …, priority 2015, dated 2019).
Read-outs that look alike come from different tables or passages of the source.

Legend:
[1] = cited from earlier work; for toxicity or side effects on oral administration: TBN 1.5 mM, AN9 300 μM concentrations
[2] = tested on: MELAS fibroblasts; experiment: Mitochondrial mass, morphology and networking (MTG live cell confocal analysis); type: cell-based, human; details: three-day exposure; NaBt 2.5 mM, TBN 1.5 mM, AN9 300 μM
Source text: FIG. 17A-17C are images from microscopy and graphs showing that butyrates rescue the mitochondrial phenotype in MELAS fibroblasts. (A) Confocal analysis of healthy and MELAS fibroblasts treated as indicated and labeled with the MTG dye; scale bar=10 (B) Analysis of the mitochondrial mass; n=3 (60 cells per experiment; ^‡p<0.05, unpaired T-test *p<0.05, paired T-test). (C) Analysis of Δψm (^‡p<0.05, unpaired T-test; *p<0.05, paired T-test).
(§1) Butyrates rescue the mitochondrial mass, morphology, networking, membrane potential, and cellular ATP levels in MELAS fibroblasts. Skin fibroblasts from two MELAS patients and from a healthy subject as a control were used. Dose-dependent analyses of butyrates to determine their best concentrations for eliciting an optimal mitochondrial response without cellular toxicity was performed. Healthy and MELAS fibroblasts were treated with PBS, NaBt (2.5 mM), TBN (1.5 mM), or AN9 (300 μM) for three days before labeling with the MTG dye for live cell confocal analysis.
as §1, with “networking, and” for “networking,”, “potential” for “potential, and cellular ATP levels”, “butyrates was performed” for “butyrates”, “toxicity.” for “toxicity was performed.”

[3] = tested on: healthy and MELAS fibroblasts; experiment: Dose-dependent studies for optimal safe concentrations; type: cell-based, human; details: three days of treatment
Source text: Experimental approaches. Five distinct molecular tools were used to investigate mitochondrial biogenesis: 1) the mitochondrial-specific dyes, MitoTracker® Green (MTG) and MitoTracker® Red (MTR); 2) the mito-GFP or mito-dsRed vector to fluorescently label mitochondria; 3) antibodies against mtDNA, COXVα, or SOD2; 4) the fluorescent PicoGreen® dye labeling mtDNA; and 5) quantitative PCR to determine mtDNA copy number.
as §1

[4] = cited from earlier work
[5] = tested on: MELAS fibroblasts; experiment: Morphometric analysis of mitochondrial connectivity (Image J); type: cell-based, human; details: Image J analysis of MTG-labeled fibroblasts
Protocol: FIG. 18 is a graph showing that butyrate and its derivatives rescue the mitochondrial dynamics and connectivity in MELAS fibroblasts.
as §1, with “networking, and” for “networking,”, “potential” for “potential, and cellular ATP levels”, “butyrates was performed” for “butyrates”, “toxicity.” for “toxicity was performed.”

[6] = human, in vivo; cited from earlier work
[7] = tested on: PC12-ND6 cells; experiment: Cell death upon chloramphenicol exposure; type: cell-based; details: chloramphenicol 0, 15, 30, 60 μM, two days
Source text: (§2) FIG. 14A-14E are images from microscopy showing that pre-treatment of PC12-ND6 cells with NaBt prevents chloramphenicol-mediated decrease of mitochondrial mass. (A) Graph of PC12-ND6 cell death upon exposure to different concentrations of chloramphenicol (Cm). Percent of cell death±SEM (n=250 cells). (B) Quantitative immunoblot analysis of mitochondrial-encoded MT-CO1 protein (green) and nuclear-encoded SDH-A protein (red) in Cm-treated PC12-ND6 cells. (C) Graph of MT-CO1/SDH-A ratio normalized to untreated PC12-ND6 cells. Mean±SEM (n=3; compared to untreated cells *p=0.0052, **p=0.0048, and ***p=0.0034). (D) Confocal micrographs of untreated and Cm-treated PC12-ND6 cells transfected with the vector mito-GFP. Scale bar represents 5 μm. (E) Confocal micrographs of NaBt pre-treated PC12-ND6 cells transfected with the vector mito-GFP and exposed to Cm. Scale bar represents 5 μm.
(§3) The efficacy of chloramphenicol treatment was determined by simultaneously examining the expression levels of the nuclear-encoded succinate dehydrogenase (SDH-A) subunit of Complex II and the mitochondrial-encoded subunit I of Complex IV (MT-COI) using a quantitative immunoblot approach. […] The effect of chloramphenicol on mitochondrial mass by live-cell confocal microscopy using PC12-ND6 cells transfected with the vector mito-GFP was confirmed.

[8] = tested on: PC12-ND6 cells; experiment: Mitochondrial mass under chloramphenicol (mito-GFP live-cell confocal microscopy); type: cell-based; details: chloramphenicol-treated
Source text: as §2, §3

[9] = tested on: SDH-A; experiment: Quantitative immunoblot of nuclear-encoded SDH-A; type: cell-based; details: chloramphenicol 15-60 μM
Source text: as §2, §3

[10] = tested on: PC12-ND6 cells; experiment: NGF (100 ng/ml)-mediated neurite outgrowth after chloramphenicol; type: cell-based; details: chloramphenicol lowest concentration two days, then NGF 100 ng/ml three days
Source text: FIG. 15A-15C are images from microscopy and a graph showing that Pre-treatment of PC12-ND6 cells negates the inhibitory effect of chloramphenicol on NGF-mediated neuronal differentiation. (A) Confocal micrographs of untreated and Cm-treated PC12-ND6 cells transfected with the vector mito-GFP and exposed to NGF. Scale bar represents 20 μm. (B) Confocal micrographs of NaBt pre-treated PC12-ND6 cells transfected with the vector mito-GFP and exposed to chloramphenicol prior to NGF treatment. Scale bar represents 20 μm. (C) Graph of average total neurite length. Mean±SEM (n=50 cells; compared to untreated PC12-ND6 cells *p=0.0001; compared to non-NaBt-treated PC12-ND6 cells with corresponding Cm concentration **p=0.0001).
Based on the results that NaBt endows PC12-ND6 cells with increased mitochondrial mass through biogenesis, resulting in accelerated neuronal differentiation, it was examined whether exposure to NaBt for three days could confer protection to chloramphenicol-mediated inhibition of neuronal differentiation upon NGF signaling.

[11] = tested on: MT-COI; experiment: Quantitative immunoblot of mitochondrial-encoded MT-COI; type: cell-based; details: lowest dose of chloramphenicol
Source text: as §2, §3

[12] = tested on: E17.5 hippocampal neurons; experiment: Neuronal stage 3 frequency with chloramphenicol and NaBt; type: cell-based; details: no NaBt
Source text: FIG. 16A-16I are images from microscopy and a graph showing that Pre-treatment of E17.5 hippocampal neurons with NaBt protects against chloramphenicol-induced loss of neuronal differentiation. (A-D) Confocal micrographs of E17.5 hippocampal neurons exposed to different concentrations of chloramphenicol at 2DIV and labeled with anti tubulin antibody (red) and nuclear counterstain DAPI (blue) at 3DIV. Scale bar represents 10 μm. (E-H) Confocal micrographs of E17.5 hippocampal neurons treated with NaBt (2 mM) at 1DIV prior to exposure to different concentrations of chloramphenicol at 2DIV and labeled with anti tubulin antibody (red) and nuclear counterstain DAPI (blue) at 3DIV. Scale bar represents 10 μm. (I) Graph of E17.5 β-III^+ hippocampal neurons at the neuronal stage 3. Mean±S.D. (n=250 cells; compared to untreated control *p=0.0001; compared to the corresponding non-NaBt treated sample **p=0.0001; compared to non-NaBt treated cells exposed to Cm at 30 μM‡p=0.007).
The consequences of chloramphenicol exposure on untreated or NaBt-treated E17.5 hippocampal neurons was examined. At 1DIV, dissociated E17.5 hippocampal neurons were switched to differentiation medium in the absence or presence of NaBt (2 mM) for 24 hours before being treated with increasing concentrations of chloramphenicol (0, 15, 30, and 60 μM) for 24 hours. At 3DIV, their phenotypic differentiation was examined by immunocytochemistry using an antibody against the pan-neuronal marker β-III tubulin and quantified the percent of neurons having reached the developmental stage 3 for each experimental condition. As expected, only half of untreated neurons reached stage 3 in the absence of NaBt, while more than 90% of NaBt-treated neurons achieved such degree of differentiation, thereby forming an elaborate neuritic network (FIGS. 16A, E, and I).

[13] = tested on: PC12-ND6 cells; details: dbcAMP alone, PC12 cell system; cited from earlier work
[14] = tested on: PC12-ND6 cells; details: TSA 0.66 μM, control HDAC inhibitor; cited from earlier work
[15] = tested on: MELAS fibroblasts; experiment: Apoptosis induced by hydroxamate HDACis; type: cell-based, human

CCCC(=O)OCOC(=O)C(C)(C)C [AN9, pivaloyloxymethyl butyrate]
toxicity or side effects on oral administration [1]: without toxicity or side effects
toxicity ([1]; in vivo): low toxicity
oral pharmacological concentrations relative to NaBt ([1]; orally administered): 140 times lower than NaBt
mitochondrial mass, morphology, and networking [2]: restored normal mitochondrial mass, morphology, and networking
optimal safe concentration for eliciting maximal mitochondrial biogenesis without cellular toxicity [3]: 300 µM
cell membrane permeability [4]: increased cell membrane permeability
connectivity among mitochondria [5]: rescue the connectivity among mitochondria

CCCC(=O)OCC(COC(=O)CCC)OC(=O)CCC [TBN, tributyrin]
toxicity or side effects on oral administration [1]: without toxicity or side effects
concentration pharmacologically attainable via oral administration without toxicity or side effects ([1]; oral): up to 2 mM
mitochondrial mass, morphology, and networking [2]: restored normal mitochondrial mass, morphology, and networking
optimal safe concentration for eliciting maximal mitochondrial biogenesis without cellular toxicity [3]: 1500 µM
connectivity among mitochondria [5]: rescue the connectivity among mitochondria

CCCC(CCC)C(=O)O [Valproic acid]
effect on seizures [6]: propensity to worsen seizures

O=C(N[C@H](CO)[C@H](O)c1ccc([N+](=O)[O-])cc1)C(Cl)Cl [chloramphenicol]
cell death [7]: negligible cell death
mitochondrial mass [8]: concentration-dependent decrease of mitochondrial mass
SDH-A expression levels [9]: none of the chloramphenicol concentrations altered
reduction in total neurite length [10]: 43%
MT-COI expression [11]: abolished most of MT-COI expression
percent of neurons at stage 3 ([12]; chloramphenicol 15 μM): did not alter the percent of neurons at stage 3
decreased transition to stage 3 ([12]; chloramphenicol 30 μM): 27%
decreased transition to stage 3 ([12]; chloramphenicol 60 μM): 54%

CCCC(=O)Nc1ncnc2c1ncn2[C@@H]1O[C@@H]2COP(=O)(O)O[C@H]2[C@H]1OC(=O)CCC [dbcAMP]
neurite length [13]: 15-20 μm

CC(/C=C/C(=O)NO)=C\[C@@H](C)C(=O)c1ccc(N(C)C)cc1 [trichostatin A]
cell death [14]: mild cell death
apoptosis [15]: induce apoptosis

O=C(CCCCCCC(=O)Nc1ccccc1)NO [vorinostat]
apoptosis [15]: induce apoptosis
